Source: patent US6921775B2, “Methods for modulating brain damage” (Children's Medical Center Corporation, priority 2001, dated 2005)

Test system: A2B5+ OL precursor cells
Assay: Cell proliferation (BrdU incorporation) in OL precursor cultures
Type: cell-based, rat
Conditions: topiramate 30 μM, NBQX 100 μM; 24 hours, BrdU last 2 hours
Method: Primary oligodendrocyte precursor cells were isolated from mixed glial cultures of the forebrains of newborn Sprague-Dawley rats using a selective detachment procedure as described in detail elsewhere (McCarthy and de Vellis, 1980; Back et al., 1998), and further purified by differential adhesion (Back et al., 1998). Precursor cells were maintained in a chemically-defined medium (CDM) supplemented with recombinant human platelet derived growth factor-AA (PDGF, 10 ng/ml) and basic fibroblast growth factor (bFGF, 10 ng/ml). […]
Cell proliferation was measured by determining the incorporation of the thymidine analog 5-bromo-2′-deoxyuridine (BrdU, […]) into replicating DNA of cells during the last 2 hr of the experiment. […] After the cells were incubated in a solution containing 2% BSA and 0.2% Triton X-100 for 30 min, BrdU incorporation was detected employing a murine monoclonal anti-BrdU antibody (Chemicon) and FITC-conjugated goat anti-mouse IgG. Quantitative analysis was performed by determining the percent of BrdU^+ cells in the A2B5^+ population. […] All assays were performed in triplicate and at least 1000 cells counted for each data point.
The proliferative capability of the cells was measured by the incorporation of the thymidine analog BrdU into DNA. […] A quantitative analysis was obtained by counting the number of BrdU^+ cells in the A2B5^+ population and calculating a percent. […]

Row | SMILES | rate of BrdU incorporation (% BrdU+/A2B5+)
1 | NS(=O)(=O)c1cccc2c1c([N+](=O)[O-])cc1nc(O)c(O)nc12 [NBQX, 2,3-Dioxo-6-nitro-1,2,3,4-tetrahydrobenzo[f]quinoxaline-7-sulphonamide] | Neither topiramate or NBQX altered the rate of BrdU incorporation
2 | CC1(C)O[C@@H]2[C@@H](CO[C@@]3(COS(N)(=O)=O)OC(C)(C)O[C@@H]23)O1 [topiramate] | Neither topiramate or NBQX altered the rate of BrdU incorporation
